Drawing on PubChem BioAssay AID330 (DTP/NCI, 2004), this text covers T/C for 22 molecules.

In the test the test system is P388 leukemia ip, CD2F1 mice, survival T/C. Nature of the test: NCI In Vivo Anticancer Drug Screen. Data for tumor model P388 Leukemia (intraperitoneal) in CD2F1 (CDF1) mice. To be noted: endpoint: median survival time, higher = longer survival. An outline of the steps: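 Mice carrying the transplanted tumor received test compound or vehicle. Survival was recorded in each group, and the value is the treated-group measurement divided by that of the vehicle-treated control group.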

[1] abbreviates: dose: 50.0 mg/kg/injection, schedule: Q01DX005 (ip), vehicle: saline with Tween-80.
[2] abbreviates: dose: 100.0 mg/kg/injection, schedule: Q01DX005 (ip), vehicle: saline with Tween-80.
Where [3] appears, read: dose: 200.0 mg/kg/injection, schedule: Q01DX005 (ip), vehicle: saline with Tween-80.
The mark [4] stands for this setting: dose: 100.0 mg/kg/injection, schedule: Q01DX001 (ip), vehicle: Klucel (hydroxypropylcellulose) (HPC).
Where [5] appears, read: dose: 200.0 mg/kg/injection, schedule: Q01DX001 (ip), vehicle: Klucel (hydroxypropylcellulose) (HPC).
Where [6] appears, read: dose: 400.0 mg/kg/injection, schedule: Q01DX001 (ip), vehicle: Klucel (hydroxypropylcellulose) (HPC).

“And” between values parts separate entries of the source, which are not always exact repeats. Equal entries are not always repeated. Toxic doses and inconclusive results are not listed.

Turning to `CC1(/C=C/Cl)CC(Cl)(CBr)C(Cl)CC1Cl` (configuration not stated), the T/C was 97 % of control (dose: 8.75 mg/kg/injection, schedule: Q01DX005 (ip), vehicle: Klucel (hydroxypropylcellulose) (HPC)); 91 % of control (dose: 17.5 mg/kg/injection, schedule: Q01DX005 (ip), vehicle: Klucel (hydroxypropylcellulose) (HPC)); 97 % of control (dose: 35.0 mg/kg/injection, schedule: Q01DX005 (ip), vehicle: Klucel (hydroxypropylcellulose) (HPC)); 91 % of control (dose: 70.0 mg/kg/injection, schedule: Q01DX005 (ip), vehicle: Klucel (hydroxypropylcellulose) (HPC)).
For the molecule `[S-]c1n[n+](-c2ccccc2)no1`, the T/C runs as follows: (dose: 6.25 mg/kg/injection, schedule: Q01DX009 (ip), vehicle: distilled water + Tween-80) 102 % of control; (dose: 12.5 mg/kg/injection, schedule: Q01DX009 (ip), vehicle: distilled water + Tween-80) 88 % of control.
Turning to `Cc1ccc2c(c1)C(=O)c1c(ccc3ccccc13)C2=O`, the T/C is 95 % of control under setting [1], 100 % of control under setting [2] and 104 % of control under setting [3].
Take `N=C(N)c1ccc(Nc2ccc(-c3cc4ccc(C(=N)N)cc4[nH]3)cc2)cc1`: the T/C (dose: 1.87 mg/kg/injection, schedule: Q01DX005 (ip), vehicle: Klucel (hydroxypropylcellulose) (HPC)) is 174 % of control; the T/C (dose: 7.5 mg/kg/injection, schedule: Q01DX005 (ip), vehicle: Klucel (hydroxypropylcellulose) (HPC)) was 166 % of control and 194 % of control.
`S=C(N/N=C\c1nc2ccccc2c2ccccc12)Nc1ccc(Cl)cc1`: the T/C was 90 % of control (dose: 100.0 mg/kg/injection, schedule: Q04DX002 (ip), vehicle: Klucel (hydroxypropylcellulose) (HPC)); 96 % of control (dose: 200.0 mg/kg/injection, schedule: Q04DX002 (ip), vehicle: Klucel (hydroxypropylcellulose) (HPC)); 96 % of control (dose: 400.0 mg/kg/injection, schedule: Q04DX002 (ip), vehicle: Klucel (hydroxypropylcellulose) (HPC)).
Regarding `C=CC(COC(=O)C(Cl)(Cl)Cl)NC(=O)C(Cl)(Cl)Cl` (configuration not stated), the T/C (dose: 6.25 mg/kg/injection, schedule: Q01DX005 (ip), vehicle: distilled water + Tween-80) was 100 % of control; the T/C (dose: 12.5 mg/kg/injection, schedule: Q01DX005 (ip), vehicle: distilled water + Tween-80) is 90 % of control; the T/C (dose: 25.0 mg/kg/injection, schedule: Q01DX005 (ip), vehicle: distilled water + Tween-80) was 100 % of control; the T/C (dose: 50.0 mg/kg/injection, schedule: Q01DX005 (ip), vehicle: distilled water + Tween-80) was 100 % of control; the T/C (dose: 100.0 mg/kg/injection, schedule: Q01DX005 (ip), vehicle: distilled water + Tween-80) was 95 % of control.
As for `O=C1CC(=O)N(C2CCCCC2)C(=O)N1c1ccccc1S(=O)(=O)Oc1ccccc1`, the T/C runs as follows: under setting [1], 103 % of control; under setting [2], 101 % of control; under setting [3], 103 % of control.
As to `CCN(CC)C(=O)Nc1ccc(O)c(C(=O)O)c1`, the T/C (dose: 100.0 mg/kg/injection, schedule: Q01DX001 (ip), vehicle: saline with Tween-80) was 100 % of control; the T/C (dose: 200.0 mg/kg/injection, schedule: Q01DX001 (ip), vehicle: saline with Tween-80) is 100 % of control; the T/C (dose: 400.0 mg/kg/injection, schedule: Q01DX001 (ip), vehicle: saline with Tween-80) was 100 % of control.
For the molecule `C=C(C(=O)OC)C(O)CC` (configuration not stated), the T/C is, setting by setting: (dose: 50.0 mg/kg/injection, schedule: Q01DX005 (ip), vehicle: saline) 91 % of control; (dose: 100.0 mg/kg/injection, schedule: Q01DX005 (ip), vehicle: saline) 107 % of control; (dose: 200.0 mg/kg/injection, schedule: Q01DX005 (ip), vehicle: saline) 100 % of control.
As to `COc1cc2[nH]c3cc(OC)c(OC)cc3c2cc1C`, the T/C runs as follows: (dose: 15.0 mg/kg/injection, schedule: Q01DX005 (ip), vehicle: saline with Tween-80) 100 % of control; (dose: 30.0 mg/kg/injection, schedule: Q01DX005 (ip), vehicle: saline with Tween-80) 96 % of control; (dose: 60.0 mg/kg/injection, schedule: Q01DX005 (ip), vehicle: saline with Tween-80) 102 % of control and 86 % of control.
Consider `Cc1csc2ccc(Cl)cc12`, for which the T/C runs as follows: under setting [4], 95 % of control; under setting [5], 107 % of control; under setting [6], 107 % of control.
Consider `COc1ccc(-c2cc(-c3ccccc3)cc(-c3ccc(OC)cc3)n2)cc1`, for which the T/C by setting is: (dose: 50.0 mg/kg/injection, schedule: Q01DX005 (ip), vehicle: Klucel (hydroxypropylcellulose) (HPC)) 98 % of control; (dose: 100.0 mg/kg/injection, schedule: Q01DX005 (ip), vehicle: Klucel (hydroxypropylcellulose) (HPC)) 94 % of control; (dose: 200.0 mg/kg/injection, schedule: Q01DX005 (ip), vehicle: Klucel (hydroxypropylcellulose) (HPC)) 92 % of control.
As to `C=CCc1cc2c(cc1C(C)c1ccc(OC)cc1)OCO2` (configuration not stated), the T/C runs as follows: under setting [1], 106 % of control; under setting [2], 109 % of control; under setting [3], 117 % of control.
Turning to `CC1CCCC(OC(=O)Nc2ccccc2)C1` (configuration not stated), the T/C reads like this: (dose: 100.0 mg/kg/injection, schedule: Q04DX003 (ip), vehicle: saline with Tween-80) 105 % of control; (dose: 200.0 mg/kg/injection, schedule: Q04DX003 (ip), vehicle: saline with Tween-80) 103 % of control; (dose: 400.0 mg/kg/injection, schedule: Q04DX003 (ip), vehicle: saline with Tween-80) 96 % of control.
On to `C=CCCOC1CCCCO1` (configuration not stated), for which the T/C by setting is: (dose: 50.0 mg/kg/injection, schedule: Q01DX009 (ip), vehicle: other) 104 % of control; (dose: 100.0 mg/kg/injection, schedule: Q01DX009 (ip), vehicle: other) 104 % of control; (dose: 200.0 mg/kg/injection, schedule: Q01DX009 (ip), vehicle: other) 100 % of control.
On to `N=C(N)SCCN1C(=O)NC(c2ccccc2)(c2ccccc2)C1=O`, for which the T/C (dose: 25.0 mg/kg/injection, schedule: Q04DX003 (ip), vehicle: Klucel (hydroxypropylcellulose) (HPC)) is 114 % of control; the T/C (dose: 50.0 mg/kg/injection, schedule: Q04DX003 (ip), vehicle: Klucel (hydroxypropylcellulose) (HPC)) was 114 % of control; the T/C (dose: 100.0 mg/kg/injection, schedule: Q04DX003 (ip), vehicle: Klucel (hydroxypropylcellulose) (HPC)) was 96 % of control; the T/C (dose: 200.0 mg/kg/injection, schedule: Q04DX003 (ip), vehicle: Klucel (hydroxypropylcellulose) (HPC)) is 114 % of control.
`[C-]#Cc1ccccc1.[C-]#Cc1ccccc1.[Cu+2]`: the T/C was 91 % of control (dose: 12.5 mg/kg/injection, schedule: Q04DX003 (ip), vehicle: saline with Tween-80); 86 % of control (dose: 25.0 mg/kg/injection, schedule: Q04DX003 (ip), vehicle: saline with Tween-80); 87 % of control (dose: 50.0 mg/kg/injection, schedule: Q04DX003 (ip), vehicle: saline with Tween-80).
`O=C(Cc1nc2ccccc2[nH]1)C(F)(F)F`: the T/C reads like this: under setting [4], 104 % of control; under setting [5], 94 % of control; under setting [6], 101 % of control.
Regarding `CS(=O)(=O)CCCCCCCCCCS(C)(=O)=O`, the T/C is, setting by setting: (dose: 100.0 mg/kg/injection, schedule: Q01DX001 (ip), vehicle: saline) 95 % of control; (dose: 200.0 mg/kg/injection, schedule: Q01DX001 (ip), vehicle: saline) 100 % of control; (dose: 400.0 mg/kg/injection, schedule: Q01DX001 (ip), vehicle: saline) 93 % of control.
As to `C/C=C(\C(=O)O)S(=O)(=O)O.[Pb]`, the T/C (dose: 25.0 mg/kg/injection, schedule: Q01DX009 (ip), vehicle: saline with Tween-80) was 100 % of control and the T/C (dose: 50.0 mg/kg/injection, schedule: Q01DX009 (ip), vehicle: saline with Tween-80) is 90 % of control.
In the case of `C[As+](C)(C)SCCO`, the T/C reads like this: (dose: 100.0 mg/kg/injection, schedule: Q04DX002 (ip), vehicle: saline) 98 % of control; (dose: 200.0 mg/kg/injection, schedule: Q04DX002 (ip), vehicle: saline) 95 % of control; (dose: 400.0 mg/kg/injection, schedule: Q04DX002 (ip), vehicle: saline) 95 % of control.
On to `CC(=O)C1=C(C)O/C(=C/c2ccc(Cl)cc2)C1=O`, for which the T/C was 118 % of control (dose: 25.0 mg/kg/injection, schedule: Q01DX005 (ip), vehicle: saline with Tween-80); 118 % of control and 120 % of control under setting [1]; 119 % of control and 124 % of control under setting [2].
